From patent US8552004B2, “Chemical compounds” (AstraZeneca AB, priority 2010, dated 2013)
Several values for one entry are separate records, joined by “and”; a condition that tells them apart may be missing. Identical values can stand only once. Like-named read-outs stand apart in the source and are kept apart here.

Columns and labels:
HT29 cells = experiment: Cellular SRB assay, potentiation of carboplatin (Test (c)); format: cell-based, human; conditions: for PF50: HT29
Description: (c) Cellular—SRB Assay The potentiation factor (PF50) for compounds is a measure of the fold increase in effect of a chemotherapeutic agent, when used in combination with an ATR inhibitor. Specifically, this is calculated as a ratio of the IC50 of control cell growth in the presence of a chemotherapeutic agent, typically carboplatin, divided by the IC50 of cell growth in the presence of this agent and the ATR inhibitor of interest. For this purpose, HT29 cells were seeded at the appropriate density to ensure exponential growth throughout the time of the assay (typically 1000-1500 cells) in each well of a 96-well plate, in a volume of 80 μl and incubated overnight at 37° C. Subsequently, cells were dosed with either DMSO vehicle, or treated with test compounds at fixed concentrations (typically 1, 0.3 & 0.1 μM). Following a one hour incubation at 37° C., the cells were further treated with a 10 point dose response of the chemotherapeutic agent, based on it's known sensitivity (typically 30-0.001 ug/ml for carboplatin). Cells were left to grow for 5 days at 37° C., after which time cell growth was assessed using the sulforhodamine B (SRB) assay (Skehan, P et al, 1990 New colorimetric cytotoxic assay for anticancer-drug screening. J. Natl. Cancer Inst. 82, 1107-1112.). Specifically, the media was removed and cells fixed with 100 μl of ice cold 10% (w/v) trichloroacetic acid. The plates were then incubated at 4° C. for 20 minutes prior to washing 4 times with water. Each well was then stained with 100 μL of 0.4% (w/v) SRB in 1% acetic acid for 20 minutes before a further 4 washes with 1% acetic acid. Plates were then dried for 2 hours at room temperature and the dye was solubilized by the addition of 100 μL Tris Base pH 8.5 into each well. Plates were shaken before measuring optical density at 564 nm (OD564). In order to calculate the PF50, the OD564 values obtained for the dose-response curve of chemotherapeutic agent were expressed as a percentage of the value obtained from cells treated with vehicle alone. Similarly, to act as a control for inclusion of the ATR inhibitor, values from the chemotherapeutic agent tested in combination with a fixed ATR inhibitor concentration were expressed as a percentage of the value obtained from cells treated with the corresponding concentration of ATR inhibitor alone. From these internally-controlled curves, IC50 values were calculated and the PF50 was determined as the ratio of these values, as described above. Compounds are compared using the PF50 value at concentrations of ATR inhibitor that show minimal growth inhibition on their own. IC50 values were calculated with XLfit (IDBS, Surrey UK) using the dose response, 4 parameter logistic model #203. Top (max) and bottom (min) curve fitting was free and not locked to 100% to 0% respectively.

ATR [1] = target: T1, ATR (Homo sapiens (Human), UniProt Q13535); experiment: Enzyme Assay - ATR (Test (a)); format: biochemical; conditions: ATR from HeLa nuclear extract, GST-p53N66 substrate, 3 μM ATP, arithmetic mean
T1 sequence (Q13535 whole entry): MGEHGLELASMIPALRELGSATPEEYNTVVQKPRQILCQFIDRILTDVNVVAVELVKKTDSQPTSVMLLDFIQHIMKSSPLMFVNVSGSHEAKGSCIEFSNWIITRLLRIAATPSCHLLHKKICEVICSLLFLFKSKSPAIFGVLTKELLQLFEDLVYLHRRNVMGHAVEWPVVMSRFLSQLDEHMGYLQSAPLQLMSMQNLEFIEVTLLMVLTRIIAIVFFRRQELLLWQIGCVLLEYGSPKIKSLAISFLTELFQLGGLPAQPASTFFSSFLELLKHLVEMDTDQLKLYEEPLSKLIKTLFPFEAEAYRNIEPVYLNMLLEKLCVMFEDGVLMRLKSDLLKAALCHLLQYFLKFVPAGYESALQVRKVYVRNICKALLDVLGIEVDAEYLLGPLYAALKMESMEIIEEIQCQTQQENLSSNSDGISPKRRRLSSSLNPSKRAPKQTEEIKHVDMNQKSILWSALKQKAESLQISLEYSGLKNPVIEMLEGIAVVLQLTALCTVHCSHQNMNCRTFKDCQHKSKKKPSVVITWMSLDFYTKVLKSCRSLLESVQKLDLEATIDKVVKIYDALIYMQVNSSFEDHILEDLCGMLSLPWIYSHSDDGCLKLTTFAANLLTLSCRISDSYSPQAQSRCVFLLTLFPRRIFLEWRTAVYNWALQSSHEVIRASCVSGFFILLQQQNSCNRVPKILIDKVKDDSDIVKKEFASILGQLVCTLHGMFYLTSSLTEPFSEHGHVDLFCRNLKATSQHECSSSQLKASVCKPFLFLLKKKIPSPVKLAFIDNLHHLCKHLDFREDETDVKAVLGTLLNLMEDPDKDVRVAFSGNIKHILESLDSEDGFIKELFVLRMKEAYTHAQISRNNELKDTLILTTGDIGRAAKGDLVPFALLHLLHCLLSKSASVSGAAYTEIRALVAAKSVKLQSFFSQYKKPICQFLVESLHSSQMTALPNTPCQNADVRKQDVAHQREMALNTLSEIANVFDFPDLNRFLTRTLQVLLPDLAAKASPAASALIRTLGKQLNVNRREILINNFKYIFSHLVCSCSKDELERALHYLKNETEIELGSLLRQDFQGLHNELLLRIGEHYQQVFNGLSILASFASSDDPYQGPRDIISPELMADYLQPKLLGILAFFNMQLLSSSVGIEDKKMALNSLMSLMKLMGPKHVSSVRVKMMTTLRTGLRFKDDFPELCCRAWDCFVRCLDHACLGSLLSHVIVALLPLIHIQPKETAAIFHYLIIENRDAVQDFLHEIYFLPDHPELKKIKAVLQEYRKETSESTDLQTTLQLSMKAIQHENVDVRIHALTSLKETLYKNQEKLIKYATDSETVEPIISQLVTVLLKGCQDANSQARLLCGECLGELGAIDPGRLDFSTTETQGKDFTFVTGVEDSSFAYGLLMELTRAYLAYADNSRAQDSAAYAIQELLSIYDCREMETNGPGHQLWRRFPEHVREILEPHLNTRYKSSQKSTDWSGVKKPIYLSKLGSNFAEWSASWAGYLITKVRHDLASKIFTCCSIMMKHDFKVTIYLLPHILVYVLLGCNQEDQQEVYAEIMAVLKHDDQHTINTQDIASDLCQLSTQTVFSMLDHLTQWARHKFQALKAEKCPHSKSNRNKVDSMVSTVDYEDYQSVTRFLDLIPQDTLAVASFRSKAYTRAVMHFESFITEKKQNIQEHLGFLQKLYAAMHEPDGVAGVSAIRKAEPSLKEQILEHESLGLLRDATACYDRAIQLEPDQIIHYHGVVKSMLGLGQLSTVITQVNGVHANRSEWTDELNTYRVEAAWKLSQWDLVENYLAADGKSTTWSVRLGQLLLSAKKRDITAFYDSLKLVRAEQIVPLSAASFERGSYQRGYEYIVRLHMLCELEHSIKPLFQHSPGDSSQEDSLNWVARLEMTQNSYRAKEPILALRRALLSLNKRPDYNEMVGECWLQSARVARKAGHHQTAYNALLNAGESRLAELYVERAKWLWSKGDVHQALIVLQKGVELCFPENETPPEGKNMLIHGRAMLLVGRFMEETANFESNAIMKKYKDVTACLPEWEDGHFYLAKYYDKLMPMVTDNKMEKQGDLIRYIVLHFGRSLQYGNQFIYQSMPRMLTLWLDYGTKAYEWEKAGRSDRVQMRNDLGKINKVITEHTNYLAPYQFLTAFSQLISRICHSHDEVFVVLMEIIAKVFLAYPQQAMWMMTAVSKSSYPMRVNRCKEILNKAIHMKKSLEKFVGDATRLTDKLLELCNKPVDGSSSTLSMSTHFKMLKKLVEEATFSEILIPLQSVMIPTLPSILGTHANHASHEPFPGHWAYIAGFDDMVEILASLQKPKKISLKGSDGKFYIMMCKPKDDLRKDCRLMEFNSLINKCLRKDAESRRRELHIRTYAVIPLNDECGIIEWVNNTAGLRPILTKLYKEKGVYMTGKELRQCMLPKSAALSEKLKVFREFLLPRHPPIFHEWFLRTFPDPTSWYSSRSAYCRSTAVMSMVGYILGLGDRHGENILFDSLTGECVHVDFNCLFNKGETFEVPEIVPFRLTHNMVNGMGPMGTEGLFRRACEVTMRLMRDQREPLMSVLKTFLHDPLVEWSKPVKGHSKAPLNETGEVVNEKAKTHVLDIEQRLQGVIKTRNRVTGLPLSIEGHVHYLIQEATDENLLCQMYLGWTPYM
T1 sequence (Q8WXE1 whole entry partner): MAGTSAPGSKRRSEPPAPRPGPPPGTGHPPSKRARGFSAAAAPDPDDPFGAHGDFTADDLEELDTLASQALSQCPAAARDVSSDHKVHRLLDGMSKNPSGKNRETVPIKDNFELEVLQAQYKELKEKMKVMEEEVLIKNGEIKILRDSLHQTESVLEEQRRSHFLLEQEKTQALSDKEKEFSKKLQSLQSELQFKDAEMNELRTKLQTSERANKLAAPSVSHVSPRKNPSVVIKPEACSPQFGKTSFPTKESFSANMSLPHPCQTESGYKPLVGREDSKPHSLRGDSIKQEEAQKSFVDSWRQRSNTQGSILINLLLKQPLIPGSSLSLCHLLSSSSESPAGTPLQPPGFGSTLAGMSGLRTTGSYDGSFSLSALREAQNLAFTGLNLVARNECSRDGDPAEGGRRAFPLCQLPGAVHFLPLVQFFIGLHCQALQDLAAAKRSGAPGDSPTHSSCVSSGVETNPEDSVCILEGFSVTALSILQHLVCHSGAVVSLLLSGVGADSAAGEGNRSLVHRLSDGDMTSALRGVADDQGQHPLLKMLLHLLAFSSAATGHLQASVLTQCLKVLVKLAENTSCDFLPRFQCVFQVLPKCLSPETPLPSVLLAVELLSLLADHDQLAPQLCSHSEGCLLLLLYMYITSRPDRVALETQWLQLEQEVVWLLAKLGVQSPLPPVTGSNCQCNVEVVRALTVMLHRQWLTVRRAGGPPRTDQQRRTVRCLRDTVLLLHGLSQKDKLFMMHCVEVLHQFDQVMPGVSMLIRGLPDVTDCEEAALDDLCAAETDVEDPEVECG
Description: ATR-antibody complexes were isolated from nuclear extract by incubating with protein A-Sepharose beads (Sigma, #P3476) for 1 hour and then through centrifugation to recover the beads. […] After 10 minutes with gentle shaking, ATP was added to a final concentration of 3 μM and the reaction continued at 37° C. for an additional 1 hour. […] Enhanced chemiluminescence solution (NEN, Boston, Mass.) was used to produce a signal and chemiluminescent detection was carried out via a TopCount (Packard, Meriden, Conn.) plate reader.

ATR [2] = target: T1, ATR; experiment: Cellular Assay - ATR, phosphorylation of Chk1 (Ser 345) in HT29 cells after 4NQO (Test (b)); format: cell-based; conditions: cell assay Test (b); pChk1 Ser345 in HT29 cells, 3 μM 4NQO; arithmetic mean
From the text: ATM and ATR have distinct and overlapping responses to DNA damage. They must participate together and responses must be co-ordinated. Both pathways may be activated by ionising radiation, however only ATR is activated by UV. Since UV treatment is not practical for use in a high throughput cell assay, the UV mimetic 4NQ0 (Sigma) was chosen to activate the ATR DNA damage response pathway.
Chk1, a downstream protein kinase of ATR, plays a key role in DNA damage checkpoint control. Activation of Chk1 involves phosphorylation of Ser317 and Ser345 (regarded as the preferential target for phosphorylation/activation by ATR). […] Compounds dose ranges were created by diluting in 100% DMSO and then further into assay media (EMEM, 10% FCS, 1% glutamine) using a Labcyte Echo Acoustic dispensing instrument. Cells were plated in 384 well Costar plates at 9×10^4 cells per ml in 40 μL EMEM, 10% FCS, 1% glutamine and grown for 24 hrs. Following addition of compound the cells were incubated for 60 minutes. A final concentration of 3 μM 4NQ0 (prepared in 100% DMSO) was then added using the Labcyte Echo and the cells incubated for a further 60mins. The cells are then fixed by adding 40 μL 3.7% v/v formaldehyde solution for 20 minutes. After removal of fix, cells were washed with PBS and permeabilised in 40 μL of PBS containing 0.1% Triton™ X-100. Cells are then washed and 15 μl primary antibody solution (pChk1 Ser345) added and the plates incubated at 4° C. overnight. […] The plates are washed and left in 40 μl PBS. Plates were then read on an ArrayS can Vti instrument to determine staining intensities, and dose responses were obtained and used to determine the IC50 values for the compounds.

[3] = potentiation factor of Carboplatin at 0.03 uM ATR inhibitor
[4] = potentiation factor of Carboplatin at 0.1 uM ATR inhibitor
[5] = potentiation factor of Carboplatin at 0.3 uM ATR inhibitor
[6] = Homo sapiens, HT-29, HT29 cell growth, IC50 of Carboplatin + 0.03 uM ATR inhibitor, read-out: IC50
[7] = Homo sapiens, HT-29, HT29 cell growth, IC50 of Carboplatin + 0.1 uM ATR inhibitor, read-out: IC50
[8] = Homo sapiens, HT-29, HT29 cell growth, IC50 of Carboplatin + 0.3 uM ATR inhibitor, read-out: IC50

Structure (SMILES)	PF50 (HT29 cells; [3])	PF50 (HT29 cells; [4])	PF50 (HT29 cells; [5])	IC50 (HT29 cells; [6])	IC50 (HT29 cells; [7])	IC50 (HT29 cells; [8])	IC50 (HT29 cells; HT29 cell growth, Carboplatin alone, 5 days, SRB)	IC50 (ATR [1])	IC50 (ATR [2])
C[C@@H]1COCCN1c1cc(C2([S@](C)(=N)=O)CC2)nc(-c2ccnc3[nH]ccc23)n1 [Example 2.02, 4-{4-[(3R)-3-Methylmorpholin-4-yl]-6-[1-((R)—S-methylsulfonimidoyl)cyclopropyl]pyrimidin-2-yl}-1H-pyrrolo[2,3-b]pyridine]	1.331	1.966	4.211	9.39 µg/mL	6.37 µg/mL	2.99 µg/mL	–	–	–
N.N.O=C([O-])C1(C(=O)[O-])CCC1.[Pt+2] [Carboplatin, reference compound]	–	–	–	–	–	–	12.519 µg/mL and 11.798 µg/mL	–	–
C[C@@H]1COCCN1c1cc(C[S@](C)(=N)=O)nc(-c2ccnc3[nH]ccc23)n1 [Example 1.01, 4-{4-[(3R)-3-Methylmorpholin-4-yl]-6-[((R)—S-methylsulfonimidoyl)methyl]pyrimidin-2-yl}-1H-pyrrolo[2,3-b]pyridine]	–	–	–	–	–	–	–	34 nM	581 nM
CNc1nc2ccccc2n1-c1nc(N2CCOC[C@H]2C)cc(C2([S@](C)(=N)=O)CC2)n1 [Example 2.03, N-Methyl-1-{4-[(3R)-3-methylmorpholin-4-yl]-6-[1-((R)—S-methylsulfonimidoyl)cyclopropyl]pyrimidin-2-yl}-1H-benzimidazol-2-amine]	2.057	5.887	18.721	5.74 µg/mL	2.01 µg/mL	0.63 µg/mL	–	–	–
